Results: patent EP4273147A1, “SUBSTITUTED SPIROLACTAMS, SALTS THEREOF AND THEIR USE AS HERBICIDALLY ACTIVE SUBSTANCES” (Bayer Aktiengesellschaft, priority 2022, dated 2023)

Assays:
GLXMA = test: Pre-emergence effects on crop plants (Table D4); type: in vivo, Glycine max; details: crop plant, visual grading after ca. 3 weeks
ZEAMX [1] = test: Pre-emergence effects on crop plants (Table D1); type: in vivo, Zea mays; details: crop plant, visual grading after ca. 3 weeks
ECHCG [2] = test: Herbicidal post-emergence action (Table B3); type: in vivo, Echinochloa crus-galli; details: application rate 1280 g/ha; rated visually after about 3 weeks
Method: (§1) Seeds of mono- and dicotyledonous weed plants were placed in plastic pots in sandy loam soil (doubly sown with in each case one species of mono- or dicotyledonous weed plants per pot), covered with soil and cultivated in a greenhouse under controlled growth conditions. 2 to 3 weeks after sowing, the test plants were treated at the one-leaf stage. […] After the test plants had been kept in the greenhouse under optimum growth conditions for about 3 weeks, the activity of the preparations was rated visually in comparison to untreated controls. For example, 100% activity = the plants have died, 0% activity = like control plants.

TRZAS [3] = test: Post-emergence effects on crop plants (Table F2); type: in vivo, Triticum aestivum; details: application rate 320 g/ha, crop plant TRZAS
Source text: (§2) 2 to 3 weeks after sowing, the test plants were sprayed in the single-leaf stage.

BRSNW [4] = test: Post-emergence effects on crop plants (Table F5); type: in vivo, Brassica napus; details: crop plant BRSNW
Source text: as §2

VERPE [5] = test: Herbicidal pre-emergence action, section C (Table C11); type: in vivo, Veronica persica; details: application rate 320 g/ha; visual grading after ca. 3 weeks
LOLRI [6] = test: Herbicidal pre-emergence action (Table A3); type: in vivo, Lolium rigidum; details: visual grading after ca. 3 weeks
Source text: (§3) Seeds of mono- and dicotyledonous weed plants were sown in plastic pots (double sowings with one species of mono- and one species of dicotyledonous weed plants per pot), in sandy loam, and covered with soil.

VERPE [7] = test: Herbicidal pre-emergence action (Table A11); type: in vivo, Veronica persica; details: application rate 1280 g/ha; visual grading after ca. 3 weeks
Source text: as §3

SETVI [8] = test: Herbicidal pre-emergence action (Table A5); type: in vivo, Setaria viridis; details: visual grading after ca. 3 weeks
Source text: as §3

POAAN [9] = test: Herbicidal post-emergence action (Table B7); type: in vivo, Poa annua; details: application rate 1280 g/ha
Method: as §1

MATIN = test: Herbicidal pre-emergence action (Table A4); type: in vivo, Matricaria inodora; details: application rate 1280 g/ha; visual grading after ca. 3 weeks
Source text: as §3

ALOMY [10] = test: Herbicidal pre-emergence action, section C (Table C2); type: in vivo, Alopecurus myosuroides; details: application rate 320 g/ha; visual grading after ca. 3 weeks
ORYZA [11] = test: Pre-emergence effects on crop plants (Table D3); details: crop plant; application rate 320 g/ha; visual grading after ca. 3 weeks
ORYZA [12] = test: Post-emergence effects on crop plants (Table F3); type: in vivo, Oryza sativa; details: application rate 320 g/ha, crop plant ORYZA
Source text: as §2

ZEAMX [13] = test: Post-emergence effects on crop plants (Table F1); type: in vivo, Zea mays; details: application rate 320 g/ha, crop plant ZEAMX
Source text: as §2

ECHCG [14] = test: Herbicidal pre-emergence action (Table A2); type: in vivo, Echinochloa crus-galli; details: application rate 320 g/ha; visual grading after ca. 3 weeks
Source text: as §3

VIOTR = test: Herbicidal pre-emergence action, section C (Table C12); type: in vivo, Viola tricolor; details: application rate 80 g/ha; visual grading after ca. 3 weeks
Source text: Seeds of mono- and dicotyledonous weed plants and crop plants were sown, in plastic or organic planting pots, in sandy loam and covered with soil. The compounds according to the invention, formulated in the form of wettable powders (WP) or as emulsifiable concentrates (EC), were applied to the surface of the covering soil as aqueous suspension or emulsion, with the addition of 0.5% of an additive, at an application rate of 600 1 of water/ha (converted). Following treatment, the pots were placed in a greenhouse and kept under optimum growth conditions for the test plants.

ECHCG [15] = test: Herbicidal pre-emergence action, section C (Table C6); type: in vivo, Echinochloa crus-galli; details: visual grading after ca. 3 weeks
LOLRI [16] = test: Herbicidal pre-emergence action, section C (Table C7); type: in vivo, Lolium rigidum; details: application rate 320 g/ha; visual grading after ca. 3 weeks
DIGSA [17] = test: Herbicidal pre-emergence action (Table A12); type: in vivo, Digitaria sanguinalis; details: application rate 320 g/ha; visual grading after ca. 3 weeks
Source text: as §3

STEME = test: Herbicidal pre-emergence action (Table A6); type: in vivo, Stellaria media; details: visual grading after ca. 3 weeks
Source text: as §3

ALOMY [18] = test: Herbicidal pre-emergence action (Table A9); type: in vivo, Alopecurus myosuroides; details: application rate 1280 g/ha; visual grading after ca. 3 weeks
Source text: as §3

POAAN [19] = test: Herbicidal pre-emergence action (Table A7); type: in vivo, Poa annua; details: visual grading after ca. 3 weeks
Source text: as §3

TRZAS [20] = test: Pre-emergence effects on crop plants (Table D2); type: in vivo, Triticum aestivum; details: crop plant, visual grading after ca. 3 weeks
SETVI [21] = test: Herbicidal pre-emergence action, section C (Table C10); type: in vivo, Setaria viridis; details: visual grading after ca. 3 weeks
DIGSA [22] = test: Herbicidal pre-emergence action, section C (Table C5); type: in vivo, Digitaria sanguinalis; details: application rate 320 g/ha; visual grading after ca. 3 weeks
BRSNW [23] = test: Pre-emergence effects on crop plants (Table D5); type: in vivo, Brassica napus; details: crop plant; application rate 320 g/ha; visual grading after ca. 3 weeks
ECHCG [24] = test: Herbicidal post-emergence action, section E (Table E5); type: in vivo, Echinochloa crus-galli; details: application rate 320 g/ha; assessed visually after ca. 3 weeks
Source text: as §2

SETVI [25] = test: Herbicidal post-emergence action (Table B8); type: in vivo, Setaria viridis; details: application rate 1280 g/ha
Method: as §1

With O=C1N(Cc2ccccc2F)CCCC12CCN(Cc1ccccc1Cl)C2=O (racemic) [I-027] the “pre-emergence activity against GLXMA” value (GLXMA; application rate 80 g/ha) was 0%, the “pre-emergence activity against ZEAMX” value (ZEAMX [1]; application rate 320 g/ha) was 0% and the “post-emergence activity against ECHCG” value (ECHCG [2]) was 90%. The “post-emergence activity against TRZAS” value (TRZAS [3]) was 0%, the “post-emergence activity against BRSNW” value (BRSNW [4]; application rate 80 g/ha) was 20% and the “pre-emergence activity against VERPE” value (VERPE [5]) was 90%. For the same molecule, the “pre-emergence activity against LOLRI” value (LOLRI [6]; application rate 1280 g/ha) was 100%, the “pre-emergence activity against VERPE” value (VERPE [7]) was 90% and the “pre-emergence activity against SETVI” value (SETVI [8]; application rate 1280 g/ha) was 100%. For the same molecule, the “post-emergence activity against POAAN” value (POAAN [9]) was 90%, the “pre-emergence activity against MATIN” value (MATIN) was 90% and the “pre-emergence activity against ALOMY” value (ALOMY [10]) was 100%. For the same molecule, the “pre-emergence activity against ORYZA” value (ORYZA [11]) was 0%, the “post-emergence activity against ORYZA” value (ORYZA [12]) was 0% and the “post-emergence activity against ZEAMX” value (ZEAMX [13]) was 0%. For the same molecule, the “pre-emergence activity against ECHCG” value (ECHCG [14]) was 100%, the “pre-emergence activity against VIOTR” value (VIOTR) was 90% and the “pre-emergence activity against ECHCG” value (ECHCG [15]; application rate 80 g/ha) was 100%. The “pre-emergence activity against LOLRI” value (LOLRI [16]) was 90%, the “pre-emergence activity against DIGSA” value (DIGSA [17]) was 90% and the “pre-emergence activity against STEME” value (STEME; application rate 1280 g/ha) was 90%. The “pre-emergence activity against ALOMY” value (ALOMY [18]) was 90%, the “pre-emergence activity against POAAN” value (POAAN [19]; application rate 320 g/ha) was 100% and the “pre-emergence activity against TRZAS” value (TRZAS [20]; application rate 320 g/ha) was 0%. For the same molecule, the “pre-emergence activity against SETVI” value (SETVI [21]; application rate 320 g/ha) was 100% and the “pre-emergence activity against DIGSA” value (DIGSA [22]) was 100%.
Cc1ccccc1CN1CCCC2(CCCN(Cc3ccccc3F)C2=O)C1=O (racemic) [I-044] was tested, and the “pre-emergence activity against GLXMA” value (GLXMA; application rate 320 g/ha) was 0%, the “pre-emergence activity against ZEAMX” value (ZEAMX [1]; application rate 80 g/ha) was 0% and the “post-emergence activity against ECHCG” value (ECHCG [2]) was 90%. For the same molecule, the “post-emergence activity against TRZAS” value (TRZAS [3]) was 10%, the “post-emergence activity against BRSNW” value (BRSNW [4]; application rate 320 g/ha) was 0% and the “pre-emergence activity against LOLRI” value (LOLRI [6]; application rate 320 g/ha) was 100%. The “pre-emergence activity against SETVI” value (SETVI [8]; application rate 320 g/ha) was 90%, the “pre-emergence activity against BRSNW” value (BRSNW [23]) was 0% and the “post-emergence activity against POAAN” value (POAAN [9]) was 90%. The “pre-emergence activity against MATIN” value (MATIN) was 100%, the “pre-emergence activity against ALOMY” value (ALOMY [10]) was 80% and the “post-emergence activity against ORYZA” value (ORYZA [12]) was 0%. For the same molecule, the “post-emergence activity against ZEAMX” value (ZEAMX [13]) was 0%, the “pre-emergence activity against ECHCG” value (ECHCG [14]) was 100% and the “pre-emergence activity against ECHCG” value (ECHCG [15]; application rate 320 g/ha) was 100%. The “pre-emergence activity against STEME” value (STEME; application rate 320 g/ha) was 90%, the “pre-emergence activity against ALOMY” value (ALOMY [18]) was 90% and the “pre-emergence activity against POAAN” value (POAAN [19]; application rate 320 g/ha) was 90%. For the same molecule, the “post-emergence activity against ECHCG” value (ECHCG [24]) was 80%, the “pre-emergence activity against TRZAS” value (TRZAS [20]; application rate 80 g/ha) was 0% and the “pre-emergence activity against SETVI” value (SETVI [21]; application rate 80 g/ha) was 100%.
For Cc1ccccc1CN1CCCC2(CCCN(Cc3c(F)cccc3F)C2=O)C1=O (racemic) [I-051], the “post-emergence activity against ECHCG” value (ECHCG [2]) was 90%, the “pre-emergence activity against LOLRI” value (LOLRI [6]; application rate 320 g/ha) was 100% and the “pre-emergence activity against VERPE” value (VERPE [7]) was 90%. The “pre-emergence activity against SETVI” value (SETVI [8]; application rate 320 g/ha) was 100%, the “post-emergence activity against POAAN” value (POAAN [9]) was 90% and the “pre-emergence activity against ECHCG” value (ECHCG [14]) was 100%. The “pre-emergence activity against ALOMY” value (ALOMY [18]) was 90%, the “post-emergence activity against SETVI” value (SETVI [25]) was 90% and the “pre-emergence activity against POAAN” value (POAAN [19]; application rate 1280 g/ha) was 90%.
